# Assay results: patent publication US10039724B2, “7-hydroxy cannabidiol (7-OH-CBD) for use in the treatment of non-alcoholic fatty liver disease (NAFLD)” (GW Pharma Limited, priority 2014, dated 2018)
# Legend:
# HHL5 cells [1] = assay: Intracellular triglyceride levels (AdipoRed) in oleic acid-treated HHL5 cells, in vitro model of fatty liver disease; type: cell-based; conditions: for intracellular lipid (triglyceride) levels, AdipoRed staining: HHL5 cells co-incubated with 100 uM oleic acid and compound for 24 hr
# Protocol: (§1) HHL-5 cells were cultured in standard growth media (DMEM [Lonza] supplemented with 10% FBS [Lonza], NEAA [Gibco] and Pen.Strep [Gibco]). 3T3-L1 cells were cultured in growth media (GM; DMEM [Lonza] low NaHCO3 (1.5 g/l), supplemented with 10% FBS [Lonza] and pen./strep. [Gibco]).
# (§2) HHL5 cells seeded in 96-well plates were grown to 90% confluence and then treated with 100 uM oleic acid (OA) or DMSO (−) for 24 hours in the absence or presence of cannabinoids at the indicated concentrations.
# (§3) 3T3-L1 cells were plated in 100 mm plates and differentiated as above to obtain mature adipocytes, at which point they were re-plated into 96-well plates and then treated with the indicated concentrations of cannabinoids for 2 days. Cells were then washed with PBS and stained with AdipoRed (Lonza) and read with a Genios Pro Plate reader (Tecan) according to the manufacturer's instructions.
# HHL5 hepatocytes that have been treated with oleic acid to induce intracellular lipid accumulation are a useful in vitro model for fatty liver disease.
# HHL5 cells [2] = assay: MTT cell viability assay in HHL5 cells; type: cell-based; conditions: HHL5 cells treated in parallel
# Protocol: as §2
# (§4) MTT (3-[4,5-dimethyltiazol-2yl]-2,5 diphenyltetrazolium bromide) (5 mg/ml differentiation media) was added to cells treated as described above, and cells were incubated for additional 1 h at 37 C.
# (§5) Cells were then washed in PBS and dried before the addition of 100 ul of isopropanol to dissolve the formazan precipitate. The OD of each well was measured with a Genios-Pro plate reader (Tecan) equipped with a 620-nm filter.
# [3] = test system: 3T3-L1-derived mature adipocytes; assay: Intracellular triglyceride levels (AdipoRed) in 3T3-L1-derived mature adipocytes; type: cell-based; conditions: for intracellular lipid stores, AdipoRed staining: mature 3T3-L1-derived adipocytes treated for 48 hours
# Protocol: as §1
# In order to induce adipogenesis cells were grown to 100% confluence and then switched to differentiation media (DMEM [Lonza] supplemented with a specific lot of 10% FBS [Lonza], 1 ug/ml Insulin (Sigma), 250 nM Dexamethasone (Sigma), 500 uM MIX (Sigma) and pen./strep. [Gibco]) for 2 days, followed by incubation in DMEM [Lonza] supplemented with a specific lot of 10% FBS [Lonza], 1 ug/ml Insulin (Sigma) and pen./strep. [Gibco] until day 7-10 at which point mature adipocytes are treated with cannabinoids at the indicated concentrations.
# as §3
# [4] = test system: 3T3-L1-derived mature adipocytes; assay: MTT cell viability assay in 3T3-L1-derived mature adipocytes; type: cell-based; conditions: mature 3T3-L1-derived adipocytes
# Protocol: as §3, §4, §5
# HHL5 cells [5] = conditions: Wargent et al., 2013; cited from earlier work
Compound,"intracellular lipid (triglyceride) levels, AdipoRed staining (HHL5 cells [1])","potency in lowering TG levels compared with parent compound CBD (HHL5 cells [1]; HHL5 cells, 100 uM oleic acid, 24 hr)","toxicity (cell viability, MTT assay) (HHL5 cells [2])",efficacy in reducing Adipored staining compared with CBD ([3]; mature 3T3-L1-derived adipocytes),"intracellular lipid stores, AdipoRed staining [3]",effect on cellular viability (MTT assay) [4],"toxicity (cell viability, MTT assay) (HHL5 cells [2]; up to 20 uM)",triglyceride (TG) levels in HHL-5 cells treated with oleic acid (HHL5 cells [5])
"C=C(C)[C@@H]1CCC(CO)=C[C@H]1c1c(O)cc(CCCCC)cc1O [7-OH-CBD, 7-hydroxy-cannabidiol]",effective at lowering TG levels,even more potent that its parent compound CBD,neither 11-OH-THCV or 7-OH-CBD were found to be toxic,more efficacious than CBD at reducing Adipored staining,dose-dependently decreased intracellular lipid stores,not associated with any apparent effect on cellular viability,,
"CCCc1cc(O)c2c(c1)OC(C)(C)[C@@H]1CCC(CO)=C[C@@H]21 [11-OH-THCV, 11-hydroxy-tetrahydrocannabivarin]",devoid of lipid lowering activity,,neither 11-OH-THCV or 7-OH-CBD were found to be toxic,,had no effect,not associated with any apparent effect on cellular viability,,
"C=C(C)[C@@H]1CCC(C)=C[C@H]1c1c(O)cc(CCCCC)cc1O [CBD, Cannabidiol]",dose-dependently lowered intracellular lipid levels,,,,dose-dependently decreased intracellular lipid stores,not associated with any apparent effect on cellular viability,no toxicity was found,
"CCCc1cc(O)c2c(c1)OC(C)(C)[C@@H]1CCC(C)=C[C@@H]21 [THCV, Tetrahydrocannabivarin]",dose-dependently lowered intracellular lipid levels,,,,dose-dependently decreased intracellular lipid stores,not associated with any apparent effect on cellular viability,no toxicity was found,able to reduce triglyceride (TG) levels in a time dependent manner
